Patent US20050256308A1, “Spiro compounds, medicinal compositions containing the same and intermediates of the compounds” (Dainippon Pharmaceutical Co., Ltd., priority 2002, published 2005)
Structures can show the parent of a compound that is named as a salt.

Tests used:
ovariectomized rats [1] = experiment: Effects on climacteric syndrome (hot flash-like symptom): tail skin temperature of ovariectomized rats; assay type: in vivo, rat; settings: for Effect on the action of β-estradiol on the tissues involved in the hot flash-like symptom: combined use, summary of Table 3; for Effect on hot flash-like symptom: summary of Table 2
Experimental: The effect of the compound of the present invention on climacteric syndrome was investigated using ovariectomized rats. The ovariectomized rats were prepared by removing the ovary on the both sides from 8-week-old Jcl:SD female rats (manufactured by CLEA Japan, Inc.) under ether anesthesia. The rats were bred under the conditions of illumination for 12 hours (6:00-18:00) every day, room temperature 24±0.5° C., and were allowed free intake of solid feed (CE-2, manufactured by CLEA Japan, Inc.) and water. The rats after 2 weeks of ovariectomy were subjected to the following experiment. The rats to be used for sham surgery group were treated in the same manner except ovariectomy.
The rats after 2 weeks of ovariectomy and sham surgery were subjected to the measurement of tail skin temperature by reference to the method of Hosono et al. (Am. J. Physiol. Regulatory Integrative Comp. Physiol. 280: R1341-R1347, 2001) without anesthesia. To be specific, a temperature sensor (SXK-67, manufactured by TAKARA THERMISTOR) was fixed at 5 cm from the base of the tail of the rats with an adhesive plaster (manufactured by NICHIBAN), and covered with an aluminum plate. The other end of the temperature sensor was connected to a fluclet (manufactured by DAINIPPON PHARMACEUTICAL CO., LTD.) via an amplifier (E332, manufactured by TAKARA THERMISTOR) and measurement and analysis were performed for 2 hr. The results are shown in Table 1, wherein an incidence of a hot flash-like symptom was confirmed at the tail of the ovariectomized rats.
A test compound was dissolved in a solvent (10% aqueous cyclodextrin solution), and orally administered to ovariectomized rats once a day for two consecutive weeks. The tail skin temperature was measured in the same manner as in the aforementioned method on the day of the final administration.

ovariectomized rats [2] = experiment: Effect on decreased femur bone density of ovariectomized rat (pQCT); assay type: in vivo; settings: for Bone density: femural metaphysis, oral once a day for 4 weeks; for Effect on decrease in the bone density due to ovariectomy: summary of Table 5(1) and 5(2)
Description: The ovary on the both sides of 13-week-old Jcl:SD female rats (manufactured by CLEA Japan, Inc.) were removed under ether anesthesia or the rats were subjected to a sham surgery, and a test compound dissolved in 10% aqueous cyclodextrin solution was orally administrated from the next day once a day for 4 consecutive weeks (10 rats/group). The rats were sacrificed by hemorrhage on the next day of the final administration and the left femur was removed. The bone density of the femural metaphysis was measured using pQCT [peripheral Quantitative Computed Tomography, XCT-960A, manufactured by Norland-Stratec].

ovariectomized rats [3] = experiment: Luteinizing hormone (LH) level in serum of ovariectomized rats; assay type: in vivo; settings: ovariectomized rat; for Serum LH: oral once a day for two weeks
Experimental: (§1) A test compound was dissolved in 10% aqueous cyclodextrin solution and orally administered to ovariectomized rats once a day for two consecutive weeks. The blood was drawn under ether anesthesia. The blood sample was allowed to coagulate at room temperature for 1 hr and centrifuged at 3000 rpm for 10 min to give serum. The amount of LH in serum was measured using a rat LH radioimmunoassay kit (manufactured by Immunotec Research Ltd., France).

Jcl:SD male rats = experiment: Effect on serum cholesterol level in rat; assay type: in vivo; settings: for Blood cholesterol: oral once a day for 4 days; for Blood cholesterol lowering action: summary of Table 6(1) and 6(2)
Experimental: A test compound was dissolved in 10% aqueous cyclodextrin solution, and orally administrated to 7-week-old Jcl:SD male rats (manufactured by CLEA Japan, Inc.) once a day for 4 consecutive days. The blood was drawn on the next day of the final administration, and plasma cholesterol was measured using a measurement kit (cholesterol CII-testwako, manufactured by Wako Pure Chemical Industries, Ltd.).

ovariectomized rats [4] = experiment: Uterus weight of ovariectomized rat (side effects); assay type: in vivo; settings: for Uterus weight: ovariectomized rat
Experimental: as §1
To investigate the side effects of the compound of the present invention, the test compound was orally administered consecutively to ovariectomized rats and sham surgery rats in the same manner as in Experimental Example 1b, the uterus was removed and weighed.

[5] = Table 2, oral once a day for two weeks, dose 0.1 mg/kg
[6] = Table 2, oral once a day for two weeks, dose 1.0 mg/kg
[7] = Table 2, oral once a day for two weeks, dose 10.0 mg/kg
[8] = Table 7, oral once a day for two weeks, dose 1.0 mg/kg

SMILES	Average tail skin temperature (ovariectomized rats [1]; [5])	Average tail skin temperature (ovariectomized rats [1]; [6])	Average tail skin temperature (ovariectomized rats [1]; [7])	Effect on the action of β-estradiol on the tissues involved in the hot flash-like symptom (ovariectomized rats [1])	Effect on hot flash-like symptom (ovariectomized rats [1])	Effect on decrease in the bone density due to ovariectomy (ovariectomized rats [2])	Blood cholesterol (Jcl:SD male rats; Table 6(1), dose 0.3 mg/kg)	Blood cholesterol lowering action (Jcl:SD male rats)	Uterus weight (ovariectomized rats [4]; [8])	Bone density (ovariectomized rats [2]; Table 5(1), dose 1.0 mg/kg)	further results
Cl.Oc1ccc2c(c1)CC[C@@]21C[C@@H](c2ccc(OCCN3CCCCC3)cc2)c2cc(O)ccc21 (relative stereo) [Example 36A, (1R*,3S*)-3-[4-(2-piperidinoethoxy)phenyl]-1,1′-spirobiindan-5,5′-diol hydrochloride]	29.9 ± 0.4 °C	29.4 ± 0.4 °C	29.0 ± 0.4 °C	did not inhibit the action of β-estradiol	improved the hot flash-like symptom						
Cl.Oc1ccc2c(c1)CCC21C=C(c2ccc(OCCN3CCCCC3)cc2)c2cc(O)ccc21 (single isomer, unassigned; (+)) [Example 37, (+)-3-[4-(2-piperidinoethoxy)phenyl]spiro[indene-1,1′-indan]-5,5′-diol hydrochloride]						significantly suppressed the decrease in the bone density					Bone density (ovariectomized rats [2]; Table 5(2), dose 0.01 mg/kg): 551 ± 10 mg/mL; Bone density (ovariectomized rats [2]; Table 5(2), dose 0.1 mg/kg): 620 ± 15 mg/mL; Bone density (ovariectomized rats [2]; Table 5(2), dose 1.0 mg/kg): 658 ± 17 mg/mL
Oc1ccc2c(c1)CCC21C=C(c2ccc(OCCN3CCCCC3)cc2)c2cc(O)ccc21 (stereo not shown) [Example 1, 3-[4-(2-piperidinoethoxy)phenyl]spiro[indene-1,1′-indan]-5,5′-diol hydrochloride]	29.4 ± 0.3 °C	28.9 ± 0.4 °C	28.0 ± 0.5 °C	did not inhibit the action of β-estradiol	improved the hot flash-like symptom	significantly suppressed the decrease in the bone density	41.6 ± 5.2 mg/dL	significant blood cholesterol lowering action at a lower dose than β-estradiol	178.6 ± 9.3 mg	738.0 ± 47.9 mg/mL	Serum LH (ovariectomized rats [3]; dose 1.0 mg/kg): 10.1 ± 0.60 ng/mL; Effect on increase in the LH amount due to ovariectomy (ovariectomized rats [3]; summary of Table 4): significantly suppressed increase in the LH amount; Blood cholesterol (Jcl:SD male rats; Table 6(1), dose 0.03 mg/kg): 63.1 ± 4.8 mg/dL; Blood cholesterol (Jcl:SD male rats; Table 6(1), dose 0.1 mg/kg): 53.8 ± 7.3 mg/dL; Effect on uterus weight of ovariectomized rat (ovariectomized rats [4]; summary of Table 7): does not significantly increase the uterus weight; Effect on the uterus weight increasing action of β-estradiol (ovariectomized rats [4]; summary of Table 8): significantly suppressed the uterus weight increasing action of β-estradiol
CC(C)CN1CCC(c2ccc(C3=CC4(CCc5cc(O)ccc54)c4ccc(O)cc43)cc2)CC1 (stereo not shown) [Example 30, 3-[4-(1-isobutyl-4-piperidinyl)phenyl]spiro[indene-1,1′-indan]-5,5′-diol hydrochloride]								significant blood cholesterol lowering action at a lower dose than β-estradiol			Blood cholesterol (Jcl:SD male rats; Table 6(2), dose 1.0 mg/kg): 23.6 ± 2.2 mg/dL
C[C@]12CC[C@@H]3c4ccc(O)cc4CC[C@H]3[C@@H]1CC[C@@H]2O [β-estradiol, reference compound]			27.7 ± 0.2 °C				62.7 ± 7.5 mg/dL		406.3 ± 20.6 mg	767.3 ± 63.9 mg/mL	Serum LH (ovariectomized rats [3]; dose 3.0 mg/kg): 7.6 ± 0.97 ng/mL; Average tail skin temperature (ovariectomized rats [1]; Table 2, oral once a day for two weeks, dose 3.0 mg/kg): 28.4 ± 0.6 °C; Average tail skin temperature (ovariectomized rats [1]; Table 3, oral once a day for two weeks, single use, dose 3.0 mg/kg): 28.1 ± 0.6 °C; Blood cholesterol (Jcl:SD male rats; Table 6(1), dose 1.0 mg/kg): 42.8 ± 6.1 mg/dL; Blood cholesterol (Jcl:SD male rats; Table 6(1), dose 3.0 mg/kg): 25.8 ± 2.0 mg/dL; Uterus weight (ovariectomized rats [4]; Table 8, single administration, dose 3.0 mg/kg): 491.7 ± 19.6 mg
